This is an account of results in US10857105B2, “Compounds and compositions for intracellular delivery of therapeutic agents” (ModernaTX, Inc., priority 2017, dated 2020).

One data set relates to modified luciferase. Description: Luciferase expression in liver, lung, spleen and femur 6 hours after intravenous administration to mice. Type of data set: in vivo. The conditions noted are these: 6 hours after intravenous 0.5 mpk, mice. Here is the method: The efficacy of the nanoparticle compositions presented in Table 1A was further evaluated by measuring the expression of modified luciferase in the liver, lung, spleen, and femur upon administration of a given composition. Formulations were administered intravenously to mice (n=3) at a dosage of 0.5 mpk and bioluminescence measured after 6 hours. The standard MC3 formulation and a PBS control were also tested. […] Flux in the liver was lowest for compositions including Compounds 58, 59, 137, and 141. Flux in the spleen was highest for compositions including Compounds 4, 7, 33, 34, 48, 53, 108, 129, 130, and 148, and lowest for compositions including Compounds 9, 59, 124, and 141.

Data set [1] in a line: Encapsulation efficiency of RNA in nanoparticle compositions (RIBOGREEN assay). Type of data set: physicochemical. The conditions noted are these: Table 1A; lipid:DSPC:cholesterol:PEG-DMG 50:10:38.5:1.5 mol %. On the procedure: For nanoparticle compositions including an RNA, a QUANT-IT™ RIBOGREEN® RNA assay (Invitrogen Corporation Carlsbad, Calif.) can be used to evaluate the encapsulation of an RNA by the nanoparticle composition. The samples are diluted to a concentration of approximately 5 μg/mL, in a TE buffer solution (10 mM Tris-HCl, 1 mM EDTA, pH 7.5). 50 μL of the diluted samples are transferred to a polystyrene 96 well plate and either 50 μL of TE buffer or 50 μL of a 2% Triton X-100 solution is added to the wells. The plate is incubated at a temperature of 37° C. for 15 minutes. The RIBOGREEN® reagent is diluted 1:100 in TE buffer, and 100 μL of this solution is added to each well. The fluorescence intensity can be measured using a fluorescence plate reader (Wallac Victor 1420 Multilabel Counter; Perkin Elmer, Waltham, Mass.) at an excitation wavelength of, for example, about 480 nm and an emission wavelength of, for example, about 520 nm. The fluorescence values of the reagent blank are subtracted from that of each of the samples and the percentage of free RNA is determined by dividing the fluorescence intensity of the intact sample (without addition of Triton X-100) by the fluorescence value of the disrupted sample (caused by the addition of Triton X-100).
(§1) Initial studies were performed to compare the delivery efficiency of nanoparticle compositions including various compounds according to Formula (I), (IA), (IB), (II), (IIa), (IIb), (IIc), (IId), (IIe), (IIf), (IIg), or (III). The cationic lipid MC3 is a current standard in the art. Accordingly, the standard MC3 formulation including about 50 mol % MC3, about 10 mol % DSPC, about 38.5 mol % cholesterol, and about 1.5 mol % PEG-DMG was used as a basis for this study. Nanoparticle compositions including DSPC as a phospholipid, cholesterol as a structural lipid, PEG-DMG as a PEG lipid, an RNA, and a compound according to Formula (I), (IA), (IB), (II), (IIa), (IIb), (IIc), (IId), (IIe), (IIf), (IIg), or (III) selected from Compounds 1-159, 168-170, and 173-175 were prepared according to or via methods similar to those described in Examples 1 and 2. The ratios of the lipids were 50:10:38.5:1.5 mol % for the lipid according to Formula (I), (IA), (IB), (II), (IIa), (IIb), (IIc), (IId), (IIe), (IIf), (IIg), or (III):DSPC:cholesterol:PEG-DMG. The RNA used was an mRNA encoding luciferase (Luc) or hEPO, wherein each uridine was replaced N1-methyl pseudouridine. Tables 1A-1E summarize the content and characteristics of the formulations.

Data set [2] in a line: Particle size and polydispersity index of nanoparticle compositions (Zetasizer Nano ZS). Type of data set: physicochemical. The conditions noted are these: Table 1A; lipid:DSPC:cholesterol:PEG-DMG 50:10:38.5:1.5 mol %. On the procedure:
A Zetasizer Nano ZS (Malvern Instruments Ltd, Malvern, Worcestershire, UK) can be used to determine the particle size, the polydispersity index (PDI) and the zeta potential of the nanoparticle compositions in 1×PBS in determining particle size and 15 mM PBS in determining zeta potential.
as §1

Each structure is given as a SMILES string.

`CCCCCCCCCN(CCCCCCCC(=O)OC(CCCCCCCC)CCCCCCCC)CCCn1ccnc1` [Compound 8, Heptadecan-9-yl 8-((3-(1H-imidazol-1-yl)propyl)(nonyl)amino)octanoate]: in the data set with modified luciferase, the “Total Flux, Liver” value is given as 7.87E+08; the “Total Flux, Lung” value is listed as 4.06E+06; the “Total Flux, Spleen” value was determined as 1.51E+08. In data set [1], this compound returned an EE of 95.8%. Besides, the Size in data set [2] turned out to be 121.0 nm.

Turning to `CCCCCCCC/C=C\CCCCCCCCN(CCO)CCCCCCCC(=O)OC(CCCCCCCC)CCCCCCCC` [Compound 31, heptadecan-9-yl (Z)-8-((2-hydroxyethyl)(octadec-9-en-1-yl)amino) octanoate], in the data set with modified luciferase, the “Total Flux, Liver” value is recorded as 5.17E+09; the “Total Flux, Lung” value was 7.55E+06; the “Total Flux, Spleen” value worked out at 9.42E+07. The same compound gave an EE in data set [1] of 95.11%. For the same compound, in data set [2], the Size is reported as 73.9 nm.

Turning to `CCCCCCCCCOC(=O)CCCCCCCN(CCO)CCCCCCCC(=O)OC(CCCCCC)CCCCCCCC` (centres unmarked) [Compound 32, nonyl 8-((2-hydroxyethyl)(8-oxo-8-(pentadecan-7-yloxy)octyl)amino) octanoate], in the data set on modified luciferase, the “Total Flux, Liver” value is listed as 8.52E+09; the “Total Flux, Lung” value was 1.16E+07; the “Total Flux, Spleen” value was determined as 1.70E+08. In addition, in data set [1], the EE came to 94.87%. The Size in data set [2] came to 105.6 nm.

Turning to `CCCCCCCCCOC(=O)CCCCCCCN(CCO)CCCCCCCC(=O)OC(CCCCC)CCCCCCCC` (centres unmarked) [Compound 33, nonyl 8-((2-hydroxyethyl)(8-oxo-8-(tetradecan-6-yloxy)octyl)amino) octanoate], in the data set with modified luciferase, the “Total Flux, Liver” value is 1.78E+10; the “Total Flux, Lung” value was found to be 2.92E+07; the “Total Flux, Spleen” value came to 3.77E+08. In data set [1], the EE was found to be 95.66%. In data set [2], this compound gave a Size of 107.3 nm.

Regarding `CCCCCCCCCOC(=O)CCCCCCCN(CCO)CCCCCCCC(=O)OC(CCC)CCCCCCCC` (centres unmarked) [Compound 34, dodecan-4-yl 8-((2-hydroxyethyl)(8-(nonyloxy)-8-oxooctyl)amino) octanoate], in the data set on modified luciferase, the “Total Flux, Liver” value worked out at 2.08E+09; the “Total Flux, Lung” value is 9.49E+06; the “Total Flux, Spleen” value is recorded as 2.40E+08. Besides, the EE in data set [1] is recorded as 92.52%. The compound further returned a Size in data set [2] of 133.8 nm.

Regarding `CCCCCCCCC(CCCCCCCC)OC(=O)CCCCCCCN(CCO)CCCCCCCCC1CC1CCCCCCCC` (centres unmarked) [Compound 47, heptadecan-9-yl 8-((2-hydroxyethyl)(8-(2-octylyclopropyl)octyl)amino)octanoate], in the data set on modified luciferase, the “Total Flux, Liver” value amounted to 4.86E+09; the “Total Flux, Lung” value is reported as 8.71E+06; the “Total Flux, Spleen” value amounted to 8.33E+07. In data set [1], this compound returned an EE of 96.40%. The same compound showed a Size in data set [2] of 80.6 nm.

`CCCCCCCCC(CCCCCCCC)OC(=O)CCCCCCCN(CCO)CCCC(=O)OCCCCC` [Compound 52, heptadecan-9-yl 8-((2-hydroxyethyl)(4-oxo-4-(pentyloxy)butyl)amino) octanoate]: in the data set with modified luciferase, the “Total Flux, Liver” value came out at 5.86E+08; the “Total Flux, Lung” value was 2.80E+06; the “Total Flux, Spleen” value came to 8.30E+07. Besides, the EE in data set [1] was found to be 93.25%. In data set [2], this compound came in with a Size of 130.5 nm.

In the case of `CCCCCCCCC(CCCCCCCC)OC(=O)CCCCCCCN(CCO)CCCC(=O)OCCCCCC` [Compound 53, heptadecan-9-yl 8-((4-(hexyloxy)-4-oxobutyl)(2-hydroxyethyl)amino) octanoate], in the data set on modified luciferase, the “Total Flux, Liver” value was found to be 2.02E+09; the “Total Flux, Lung” value is given as 2.47E+07; the “Total Flux, Spleen” value is recorded as 8.54E+08. Also, in data set [1], the EE stood at 95.8%. The same compound yielded a Size in data set [2] of 125.4 nm.

Turning to `CCCCCCCCC(CCCCCCCC)OC(=O)CCCCCCCN(CCO)CCCC(=O)OCCCCCCC` [Compound 54, heptadecan-9-yl 8-((4-(heptyloxy)-4-oxobutyl)(2-hydroxyethyl)amino) octanoate], in the data set with modified luciferase, the “Total Flux, Liver” value is recorded as 5.57E+09; the “Total Flux, Lung” value was 1.12E+07; the “Total Flux, Spleen” value came out at 1.64E+08. The EE in data set [1] is recorded as 96.71%. This compound came in with a Size in data set [2] of 112.9 nm.

Consider `CCCCCCCCCOC(=O)CCCCCCCN(CCO)CCCCCCCC(=O)OC(CCCCCC)CCCCCC` [Compound 56, nonyl 8-((2-hydroxyethyl)(8-oxo-8-(tridecan-7-yloxy)octyl)amino) octanoate], for which, in the data set with modified luciferase, the “Total Flux, Liver” value was 1.04E+09; the “Total Flux, Lung” value is reported as 4.62E+06; the “Total Flux, Spleen” value is on record as 1.98E+08. The same compound returned an EE in data set [1] of 95.18%. Moreover, the Size in data set [2] worked out at 112.1 nm.

On to `CCCCCCCCCOC(=O)CCCCCCCN(CCO)CCCCCCCC(=O)OC(CCCC)CCCC` [Compound 57, nonan-5-yl 8-((2-hydroxyethyl)(8-(nonyloxy)-8-oxooctyl)amino) octanoate], for which, in the data set with modified luciferase, the “Total Flux, Liver” value came out at 9.36E+05; the “Total Flux, Lung” value is 3.18E+04; the “Total Flux, Spleen” value turned out to be 2.47E+06. The compound further gave an EE in data set [1] of 94.33%. The compound also came in with a Size in data set [2] of 128.4 nm.

For `CCCCCCCCCOC(=O)CCCCCCCN(CCO)CCCCCCCC(=O)OC(CCC)CCC` [Compound 58, heptan-4-yl 8-((2-hydroxyethyl)(8-(nonyloxy)-8-oxooctyl)amino) octanoate], in the data set with modified luciferase, the “Total Flux, Liver” value is on record as 8.71E+04; the “Total Flux, Lung” value was determined as 1.21E+04; the “Total Flux, Spleen” value is reported as 2.38E+05. In addition, the EE in data set [1] was determined as 92.54%. This compound also registered a Size in data set [2] of 130.8 nm.

As to `CCCCCCCCC(CCCCCCCC)OC(=O)CCCCCCCN(CCO)CCCC(=O)OC(CCCCCC)CCCCCCCC` (centres unmarked) [Compound 73, Heptadecan-9-yl 8-((2-hydroxyethyl)(4-oxo-4-(pentadecan-7-yloxy)butyl)amino)octanoate], in the data set with modified luciferase, the “Total Flux, Liver” value was 7.93E+08; the “Total Flux, Lung” value is reported as 6.17E+06; the “Total Flux, Spleen” value is 9.45E+06. For the same compound, in data set [1], the EE was 95.7%. This compound came in with a Size in data set [2] of 59.2 nm.

Take `CCCCCCCCCOC(=O)CCCCCCCN(CCO)CCCCCCCC(=O)OC1CCC(CCCCC)CC1` (centres unmarked) [Compound 79, Nonyl 8-((2-hydroxyethyl)(8-oxo-8-((4-pentylcyclohexyl)oxy)octyl)amino)octanoate]: in the data set with modified luciferase, the “Total Flux, Liver” value came out at 3.15E+06; the “Total Flux, Lung” value is 6.13E+04; the “Total Flux, Spleen” value is on record as 6.45E+05. The same compound gave an EE in data set [1] of 89.1%. In data set [2], the Size was found to be 93.7 nm.

`CCCCCCCCCOC(=O)CCCCCCCN(CCO)CCCCCCCC(=O)OC1CCC(C2CCCCC2)CC1` (centres unmarked) [Compound 80, [1,1′-Bi(cyclohexan)]-4-yl 8-((2-hydroxyethyl)(8-(nonyloxy)-8-oxooctyl)amino)octanoate]: in the data set with modified luciferase, the “Total Flux, Liver” value stood at 1.09E+07; the “Total Flux, Lung” value amounted to 8.97E+04; the “Total Flux, Spleen” value came out at 4.71E+06. The EE in data set [1] stood at 90.7%. Moreover, in data set [2], the Size worked out at 118 nm.

`CCCCCCCCCOC(=O)CCCCCCCN(CCO)CCCCCCCC(=O)OC1CCCCCCCCCCCCCC1` [Compound 81, Cyclopentadecyl 8-((2-hydroxyethyl)(8-(nonyloxy)-8-oxooctyl)amino)octanoate]: in the data set with modified luciferase, the “Total Flux, Liver” value was 2.74E+08; the “Total Flux, Lung” value was found to be 6.23E+06; the “Total Flux, Spleen” value is listed as 4.49E+07. In data set [1], this compound gave an EE of 95.4%. For the same compound, in data set [2], the Size is 99.2 nm.
